1 substance from US5162304A, “Pharmaceutical compositions and methods for treatment and prophylaxis of cancer” (priority 1990, dated 1992) can be followed below.

The subject of assay [1] is human lung carcinoma A549 cells. Put plainly: Tests 4, 5 and Comparing Test 1: cytocidal activity of bleomycin alone or with isomonool, A549 cells. In kind it is cell-based. The protocol:
(§1) The cytocidal activity (IC90) of bleomycin was evaluated when used alone or used in combination with 14-methyl-1-pentadecanol or 14-methyl-1-hexadecanol, using Ehrlich's mouse ascites carcinoma cells and human lung tumor A549 cells.

For another assay, the system named is Ehrlich's ascites cells. Put plainly: Test 6 and Comparing Test 2: uptake of bleomycin into Ehrlich's ascites cells. The settings on record: bleomycin alone. The assay is classed as cell-based, mouse.
Assay [2] relates to Ehrlich's mouse ascites carcinoma cells. As to the kind of experiment: Tests 4, 5 and Comparing Test 1: cytocidal activity of bleomycin alone or with isomonool, Ehrlich's cells. In kind it is cell-based. The protocol:
as §1

Assay [3] shares this test system. Put plainly: Test 7 and Comparing Tests 3 and 4: survival of mice inoculated with Ehrlich's mouse ascites carcinoma cells. The settings on record: bleomycin alone; for Number of surviving mice: of 8. The assay is classed as in vivo, male C57BL/6 mice. Here is the method:
5-week old male C57BL/6 mice were intraperitoneally inoculated with 10^6 Ehrlich's mouse ascites carcinoma cells. Since 24 hours later, a 50 μg/ml solution of bleomycin in 0.25% HCO-60 solution in physiological saline, and a suspension containing 50 μg/ml of bleomycin and 5 μg/ml of 14-methyl-1-pentadecanol were intraperitoneally injected at a dose of 10 mg/kg·day and 11 mg/kg·day, respectively, to each 8 animals/group for 5 days. The survival time of the injected mice was then followed.

Turning to bleomycin [reference compound], the “Cytocidal activity (IC90) of bleomycin alone” value is 44 µg/mL in assay [1] and 20 µg/mL in assay [2]. The Bleomycin uptake is recorded as 0.03 μg/mg Ehrlich's cell in the assay on Ehrlich's ascites cells (30 min); 0.06 μg/mg Ehrlich's cell in the assay with Ehrlich's ascites cells (60 min); 0.12 μg/mg Ehrlich's cell in the assay on Ehrlich's ascites cells (120 min); 0.13 μg/mg Ehrlich's cell in the assay on Ehrlich's ascites cells (180 min); 0 μg/mg Ehrlich's cell in the assay with Ehrlich's ascites cells (Initial). For the same substance, the “mean survival time after inoculation” value in assay [3] (i.p., 10 mg/kg.day for 5 days (Comparing test 3)) was found to be 33.3 days. Further, the “Number of surviving mice” value in assay [3] (day 14) worked out at 7; in assay [3] (day 15), 6; in assay [3] (day 16), 6; in assay [3] (day 17), 6; in assay [3] (day 18), 6; in assay [3] (day 19), 6. For the same substance, the “Number of surviving mice” value in assay [3] (day 20) is reported as 6; in assay [3] (day 23), 4; in assay [3] (day 33) it was 3; in assay [3] (day 41), 2; in assay [3] (day 45), 2; in assay [3] (day 52) it was 2. Also, the “Number of surviving mice” value in assay [3] (day 57) and in assay [3] (day 60) was 1 throughout.
